27 compounds from ChEMBL document CHEMBL4616620, “Discovery and SAR of aryl hydroxy pyrimidinones as potent small molecule agonists of the GPCR APJ” (Bioorg Med Chem Lett, 2020) can be followed below.

Values joined by “and” are separate entries in the source; they are usually repeats but may differ in a detail not shown here. Equal entries are not always repeated.

For one data set, the target named is T1, Apelin receptor (Homo sapiens, UniProt P35414).
T1 sequence (P35414 whole entry): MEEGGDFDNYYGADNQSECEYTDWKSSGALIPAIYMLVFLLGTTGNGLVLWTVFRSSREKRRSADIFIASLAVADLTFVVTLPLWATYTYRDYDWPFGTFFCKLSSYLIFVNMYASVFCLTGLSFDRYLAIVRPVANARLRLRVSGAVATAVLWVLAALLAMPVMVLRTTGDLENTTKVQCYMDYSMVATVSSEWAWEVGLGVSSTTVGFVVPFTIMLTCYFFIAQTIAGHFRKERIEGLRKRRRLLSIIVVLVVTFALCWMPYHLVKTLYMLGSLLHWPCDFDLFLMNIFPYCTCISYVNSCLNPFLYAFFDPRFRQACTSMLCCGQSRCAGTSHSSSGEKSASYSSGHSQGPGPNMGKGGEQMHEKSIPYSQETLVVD
Nature of the data set: Agonist activity at human APJ expressed in HEK293 cells assessed as inhibition of forskolin-stimulated cAMP production. Format: functional, cell-based.

The nature of data set [1]: Tmax in mouse at 10 mg/kg, po. Format: ADME, organism-based. To be noted: in vivo.
The target of data set [2] is T2, Nuclear receptor subfamily 1 group I member 2 (Homo sapiens, UniProt O75469).
T2 sequence (O75469 whole entry): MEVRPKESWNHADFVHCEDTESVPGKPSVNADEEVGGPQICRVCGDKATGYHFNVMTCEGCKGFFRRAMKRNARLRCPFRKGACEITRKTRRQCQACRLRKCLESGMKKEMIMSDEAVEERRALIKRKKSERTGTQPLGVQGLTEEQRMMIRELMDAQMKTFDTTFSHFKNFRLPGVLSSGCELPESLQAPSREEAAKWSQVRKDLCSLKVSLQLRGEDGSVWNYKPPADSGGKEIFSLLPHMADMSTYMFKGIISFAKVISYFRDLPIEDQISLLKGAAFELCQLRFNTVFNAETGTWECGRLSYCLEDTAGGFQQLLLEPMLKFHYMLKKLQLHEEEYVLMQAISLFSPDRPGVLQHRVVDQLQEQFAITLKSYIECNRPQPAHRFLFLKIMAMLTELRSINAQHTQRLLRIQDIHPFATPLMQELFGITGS
Nature of the data set: Agonist activity at PXR (unknown origin).

Data set [3] concerns the target Voltage-gated inwardly rectifying potassium channel KCNH2 (Homo sapiens, UniProt Q12809). Nature of the data set: Inhibition of human ERG.
The nature of data set [4]: Cmax in mouse at 10 mg/kg, po. Also noted: dose 10 mg/kg, route oral. Format: ADME, organism-based. Particulars: in vivo.
The nature of data set [5]: AUC in mouse at 10 mg/kg, po. Type of data set: ADME, organism-based. To be noted: in vivo.
Data set [6] concerns the target CYP450 (isoform not stated) (Homo sapiens, UniProt P04798+P05177+P05181+P08684+P10632+P10635+P11509+P11712+P13584+P20813+P20815+P20853+P24462+P24903+P33260+P33261+P51589+P78329+P98187+Q02928+Q08477+Q16678+Q16696+Q5TCH4+Q6VVX0+Q7Z449+Q8TAV3+Q96SQ9+Q9HB55). Nature of the data set: Inhibition of CYP450 (unknown origin). Format: ADME, protein assay.
Data set [7] in a line: Permeability of compound at pH 7.4 by PAMPA assay. To be noted: read-out: permeability. Format: ADME.
Data set [8] in a line: Permeability of compound at pH 5.5 by PAMPA assay. Type of data set: ADME. Particulars: read-out: permeability. (In general: In PAMPA a lipid-coated filter parts donor from acceptor wells.)
Data set [9] deals with T3, Apelin receptor (Homo sapiens) (UniProt P35414).
T3 sequence (whole entry): T1 sequence (P35414 whole entry)
The data set is described as follows: Agonist activity at human APJ expressed in HEK293 cells assessed as inhibition of forskolin-stimulated cAMP production at 10 uM relative to control. Type of data set: functional, cell-based. Background: Cyclic AMP is a second messenger, typically raised through Gs and lowered through Gi signalling.

Sequence of Voltage-gated inwardly rectifying potassium channel KCNH2 (Q12809 whole entry): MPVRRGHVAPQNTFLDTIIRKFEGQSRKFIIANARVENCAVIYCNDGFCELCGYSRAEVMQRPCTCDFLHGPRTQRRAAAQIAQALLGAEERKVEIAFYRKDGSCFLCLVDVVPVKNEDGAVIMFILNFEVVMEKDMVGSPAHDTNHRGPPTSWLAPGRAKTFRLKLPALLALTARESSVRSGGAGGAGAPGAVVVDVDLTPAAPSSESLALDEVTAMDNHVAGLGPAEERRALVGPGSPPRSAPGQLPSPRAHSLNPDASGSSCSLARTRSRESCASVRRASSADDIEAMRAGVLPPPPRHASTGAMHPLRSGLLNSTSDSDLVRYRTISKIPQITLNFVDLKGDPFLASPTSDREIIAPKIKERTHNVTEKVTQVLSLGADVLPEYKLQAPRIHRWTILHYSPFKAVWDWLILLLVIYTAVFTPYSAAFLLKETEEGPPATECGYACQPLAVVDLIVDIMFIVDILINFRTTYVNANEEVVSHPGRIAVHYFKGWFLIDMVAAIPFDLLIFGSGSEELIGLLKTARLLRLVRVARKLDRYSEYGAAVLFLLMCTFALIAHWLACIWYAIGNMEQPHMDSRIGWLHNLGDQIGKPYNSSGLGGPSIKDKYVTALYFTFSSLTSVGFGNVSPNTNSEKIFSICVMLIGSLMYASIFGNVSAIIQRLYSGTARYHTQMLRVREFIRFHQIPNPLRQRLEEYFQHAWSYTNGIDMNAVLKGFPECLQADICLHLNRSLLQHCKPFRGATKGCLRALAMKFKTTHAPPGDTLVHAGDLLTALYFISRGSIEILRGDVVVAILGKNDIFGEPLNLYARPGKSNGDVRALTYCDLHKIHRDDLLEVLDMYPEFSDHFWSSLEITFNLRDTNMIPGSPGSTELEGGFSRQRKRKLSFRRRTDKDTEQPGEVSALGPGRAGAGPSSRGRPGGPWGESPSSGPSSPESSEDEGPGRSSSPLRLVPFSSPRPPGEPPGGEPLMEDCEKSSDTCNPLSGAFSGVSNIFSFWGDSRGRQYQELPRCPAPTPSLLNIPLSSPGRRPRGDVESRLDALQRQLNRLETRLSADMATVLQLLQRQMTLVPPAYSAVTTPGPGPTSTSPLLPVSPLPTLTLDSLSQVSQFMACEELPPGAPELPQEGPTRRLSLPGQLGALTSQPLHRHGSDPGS

The EC50 is the concentration at which the effect is half-maximal. Take `CCCSc1nc(=O)cc(O)n1-c1ccccc1OCC`: the EC50 on Apelin receptor was found to be 100 nM.
Take `CCCSc1nc(=O)c(Cc2ccccc2)c(O)n1-c1ccccc1OC`: the EC50 on Apelin receptor came out at 340 nM.
`CCCSc1nc(=O)cc(O)n1-c1ccccc1Cl`: on Apelin receptor, the EC50 came out at 250 nM.
By Tmax is commonly meant the time at which the peak concentration occurs. Usually IC50 stands for the point on the concentration scale where inhibition reaches its midpoint. A lower IC50 goes with greater potency. By Cmax is commonly meant the peak of the concentration-time curve. As usually defined, the AUC is concentration integrated over time. A high value points to more exposure. For the compound `CCCCc1nc(=O)cc(O)n1-c1c(C)cccc1OC`, the Tmax in data set [1] is 4 h. Besides, the half-maximal effective concentration (EC50) was 5 nM and 3 nM and 2 nM at Apelin receptor; more than 14000 nM in data set [2]. The results for the IC50 in data set [3] and in [6] were more than 80000 nM and more than 20000 nM, respectively. In addition, in data set [4], the peak level (Cmax) was 1.68 µM. Moreover, the AUC in data set [5] is 10.2 µM·h. Also, the results for the Papp in data set [7] and in data set [8] were 1 ×10⁻⁶ cm/s and 1.2 ×10⁻⁶ cm/s, respectively.
As for `CCCSc1nc(=O)cc(O)n1-c1ccccc1OC`, the Tmax in data set [1] came to 4 h. In addition, the EC50 on Apelin receptor was 64 nM and 40 nM and 160 nM; in [2], more than 50000 nM. Also, the IC50 in data set [3] was more than 80000 nM; in data set [6] it was more than 20000 nM. In [4], this compound showed a Cmax of 4.4 µM. In addition, the exposure (AUC) in data set [5] was 29 µM·h. In addition, the Papp in data set [7] came to 13.1 ×10⁻⁶ cm/s; in data set [8], 23 ×10⁻⁶ cm/s.
As for `CCCSc1nc(=O)cc(O)n1-c1ccccc1Br`, the EC50 on Apelin receptor was 155 nM.
With `CCCSc1nc(=O)cc(O)n1-c1ccccc1`, at Apelin receptor, the EC50 came out at 5000 nM. Besides, the Efficacy in data set [9] was determined as 100%.
For the compound `C=CCn1c(O)cc(=O)nc1SC(C)CC` (stereo not given), on Apelin receptor, the EC50 was 4400 nM. Moreover, the Efficacy in data set [9] is 100%.
For the compound `CCCSc1nc(=O)c(C(C)C)c(O)n1-c1ccccc1OC`, the EC50 at Apelin receptor came out at 450 nM.
Regarding `CCCSc1nc(=O)cc(O)n1-c1cccc(C)c1`, the EC50 on Apelin receptor was found to be 290 nM.
As to `CCCCc1nc(=O)c(Cc2ccc(OC)cc2)c(O)n1-c1c(OC)cccc1OC`, the EC50 on Apelin receptor stood at 13 nM.
As for `CCCSc1nc(=O)c(C)c(O)n1-c1ccccc1OC`, at Apelin receptor, the EC50 came to 1400 nM.
Turning to `CCCCc1nc(=O)cc(O)n1-c1c(OC)cccc1OC`, on Apelin receptor, the EC50 amounted to 11 nM.
On to `CCCSc1nc(=O)cc(O)n1-c1ccc(OC)cc1`, for which, on Apelin receptor, the EC50 was 680 nM.
Take `CCCSc1nc(=O)c(CC)c(O)n1-c1ccccc1OC`: at Apelin receptor, the EC50 was 860 nM.
Consider `CCCSc1nc(=O)cc(O)n1-c1ccccc1CC`, for which, on Apelin receptor, the EC50 stood at 140 nM.
`CCCSc1nc(=O)cc(O)n1-c1ccccc1C(F)(F)F`: the EC50 at Apelin receptor was 90 nM.
For the compound `CCCSc1nc(=O)cc(O)n1-c1ccccc1C`, at Apelin receptor, the EC50 was found to be 100 nM.
Consider `COc1ccccc1-n1c(O)cc(=O)nc1SCC(C)C`, for which, at Apelin receptor, the EC50 stood at 78 nM.
In the case of `CCCCSc1nc(=O)cc(O)n1-c1ccccc1OC`, the EC50 on Apelin receptor is 200 nM.
Turning to `CCCCc1c(O)n(-c2ccccc2OC)c(SCCC)nc1=O`, the EC50 on Apelin receptor is 1700 nM.
With `C=CCc1c(O)n(-c2ccccc2OC)c(SCCC)nc1=O`, at Apelin receptor, the EC50 is 570 nM.
Take `CCCSc1nc(=O)cc(O)n1-c1cccc(OC)c1`: the EC50 at Apelin receptor came out at 940 nM.
Same read-out and setting: the same measure for `CCCCc1nc(=O)cc(O)n1-c1ccccc1OC`: 22 nM and 24 nM and 31 nM; for `COc1ccccc1-n1c(O)cc(=O)nc1SC(C)C`: 23 nM; for `CCCSc1nc(=O)cc(O)n1-c1ccccc1F`: 160 nM.
For the compound `CCCSc1nc(=O)cc(O)n1-c1ccc(C)cc1`, the EC50 on Apelin receptor was found to be 260 nM.
